Laboratory results as given in US10934310B2, “Inhibitors of Bruton's tyrosine kinase and method of their use” (JANSSEN PHARMACEUTICA NV, priority 2015, dated 2021).

Each compound was assayed against unphosphorylated-BTK kinase domain (UP-BTK), GST-tagged human BTK (389-659aa) (Homo sapiens (Human), UniProt Q06187) (assay: BTK Kinase Lanthascreen Binding Assay). Conditions: Lanthascreen binding, 60 minutes incubation; pIC50 = negative log of the IC50 in molar.
Procedure: BTK Kinase Lanthascreen Binding Assay:
A BTK kinase lanthascreen binding assay monitors compound binding to unphosphorylated-BTK kinase domain (UP-BTK), by competing with a fluorescent labeled tracer. […] Data were analyzed using Xlfit™ version 5.3 from ID Business Solutions (Guildford), Microsoft Excel add-in. pIC50 refers to the negative log of the IC50 in molar.

unphosphorylated-BTK kinase domain (UP-BTK), GST-tagged human BTK (389-659aa), sequence (Q06187 389-659): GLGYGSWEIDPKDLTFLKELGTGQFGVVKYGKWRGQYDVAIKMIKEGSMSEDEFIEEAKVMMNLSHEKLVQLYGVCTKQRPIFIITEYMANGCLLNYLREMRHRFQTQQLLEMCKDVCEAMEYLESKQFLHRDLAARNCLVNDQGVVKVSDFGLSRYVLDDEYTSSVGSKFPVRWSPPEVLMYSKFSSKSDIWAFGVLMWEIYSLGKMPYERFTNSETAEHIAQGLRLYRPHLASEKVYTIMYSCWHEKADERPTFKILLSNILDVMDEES

SMILES | BTK_I_binding pIC50
C=CC(=O)N[C@H]1CCC[C@H]1NC(=O)c1sc2nccc3c2c1NC(=O)N3c1ccc(Oc2cncnc2)cn1 [Example 485, N-((1R,2S)-2-Acrylamidocyclopentyl)-4-oxo-5-(5-(pyrimidin-5-yloxy)pyridin-2-yl)-4,5-dihydro-3H-1-thia-3,5,8-triazaacenaphthylene-2-carboxamide] | 6.59
C=CC(=O)N[C@H]1CCC[C@H]1NC(=O)c1sc2nccc3c2c1NC(=O)N3c1cnc(Oc2cncnc2)cc1C [Example 486, N-((1R,2S)-2-Acrylamidocyclopentyl)-5-(4-methyl-6-(pyrimidin-5-yloxy)pyridin-3-yl)-4-oxo-4,5-dihydro-3H-1-thia-3,5,8-triazaacenaphthylene-2-carboxamide] | 7.39
C=CC(=O)N[C@H]1CCC[C@H]1NC(=O)c1sc2nccc3c2c1NC(=O)N3c1cnc(Oc2ccc(C)nc2)cc1C [Example 487, N-((1R,2S)-2-Acrylamidocyclopentyl)-5-(4-methyl-6-((6-methylpyridin-3-yl)oxy)pyridin-3-yl)-4-oxo-4,5-dihydro-3H-1-thia-3,5,8-triazaacenaphthylene-2-carboxamide] | 6.87
C=CC(=O)N[C@H]1CCC[C@H]1NC(=O)c1sc2nccc3c2c1NC(=O)N3c1cnc(Oc2ccccn2)cc1C [Example 488, N-((1R,2S)-2-Acrylamidocyclopentyl)-5-(4-methyl-6-(pyridin-2-yloxy)pyridin-3-yl)-4-oxo-4,5-dihydro-3H-1-thia-3,5,8-triazaacenaphthylene-2-carboxamide] | 7.62
C=CC(=O)N[C@H]1CCC[C@H]1NC(=O)c1sc2nccc3c2c1NC(=O)N3c1cnc(Oc2cccnc2C)cc1C [Example 489, N-((1R,2S)-2-Acrylamidocyclopentyl)-5-(4-methyl-6-((2-methylpyridin-3-yl)oxy)pyridin-3-yl)-4-oxo-4,5-dihydro-3H-1-thia-3,5,8-triazaacenaphthylene-2-carboxamide] | 7.03
C=CC(=O)N[C@H]1CCC[C@H]1NC(=O)c1sc2nccc3c2c1NC(=O)N3c1cnc(Oc2cccnc2)cc1C [Example 490, N-((1R,2S)-2-Acrylamidocyclopentyl)-5-(4-methyl-6-(pyridin-3-yloxy)pyridin-3-yl)-4-oxo-4,5-dihydro-3H-1-thia-3,5,8-triazaacenaphthylene-2-carboxamide] | 7.40
C=CC(=O)N[C@H]1CCC[C@H]1NC(=O)c1sc2nccc3c2c1NC(=O)N3c1ccc(Oc2cccnc2)cn1 [Example 491, N-((1R,2S)-2-Acrylamidocyclopentyl)-4-oxo-5-(5-(pyridin-3-yloxy)pyridin-2-yl)-4,5-dihydro-3H-1-thia-3,5,8-triazaacenaphthylene-2-carboxamide] | 7.43
C=CC(=O)N[C@H]1CCC[C@H]1NC(=O)c1sc2nccc3c2c1NC(=O)N3c1ccc(Oc2cncnc2)nc1C [Example 492, N-((1R,2S)-2-Acrylamidocyclopentyl)-5-(2-methyl-6-(pyrimidin-5-yloxy)pyridin-3-yl)-4-oxo-4,5-dihydro-3H-1-thia-3,5,8-triazaacenaphthylene-2-carboxamide] | 6.66
C=CC(=O)N[C@H]1CCC[C@H]1NC(=O)c1sc2nccc3c2c1NC(=O)N3c1ccc(Oc2cccnc2C)cn1 [Example 493, N-((1R,2S)-2-Acrylamidocyclopentyl)-5-(5-((2-methylpyridin-3-yl)oxy)pyridin-2-yl)-4-oxo-4,5-dihydro-3H-1-thia-3,5,8-triazaacenaphthylene-2-carboxamide] | 7.32
C=CC(=O)N[C@H]1CCC[C@H]1NC(=O)c1sc2nccc3c2c1NC(=O)N3c1ccc(Oc2cccnc2)nc1C [Example 494, N-((1R,2S)-2-Acrylamidocyclopentyl)-5-(2-methyl-6-(pyridin-3-yloxy)pyridin-3-yl)-4-oxo-4,5-dihydro-3H-1-thia-3,5,8-triazaacenaphthylene-2-carboxamide] | 7.37
C=CC(=O)N[C@H]1CCC[C@H]1NC(=O)c1sc2nccc3c2c1NC(=O)N3c1ccc(Oc2ccc(C)nc2)nc1C [Example 495, N-((1R,2S)-2-Acrylamidocyclopentyl)-5-(2-methyl-6-((6-methylpyridin-3-yl)oxy)pyridin-3-yl)-4-oxo-4,5-dihydro-3H-1-thia-3,5,8-triazaacenaphthylene-2-carboxamide] | 6.63
C=CC(=O)N[C@H]1CCC[C@H]1NC(=O)c1sc2nccc3c2c1NC(=O)N3c1ccc(Oc2cncnc2)cc1 [Example 508, N-((1R,2S)-2-acrylamidocyclopentyl)-4-oxo-5-(4-(pyrimidin-5-yloxy)phenyl)-4,5-dihydro-3H-1-thia-3,5,8-triazaacenaphthylene-2-carboxamide] | 7.48
